Data published in PubChem BioAssay AID248 (DTP/NCI, 2004).
Where “and” joins values, the source holds several entries; their conditions need not be identical. Identical values can stand only once. Inconclusive results and toxic doses are left out.

Tested on: L1210 leukemia ip in BDF1 mice, survival T/C
Assay: NCI In Vivo Anticancer Drug Screen. Data for tumor model L1210 Leukemia (intraperitoneal) in B6D2F1 (BDF1) mice
Conditions: endpoint: mean survival time, higher = longer survival
How it was run: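 Read-out is survival time, reported as the treated-group measurement over the vehicle-control measurement.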

[1] = dose: 12.5 mg/kg/injection, schedule: Q01DX009 (ip), vehicle: saline with Tween-80
[2] = dose: 25.0 mg/kg/injection, schedule: Q01DX009 (ip), vehicle: saline with Tween-80
[3] = dose: 50.0 mg/kg/injection, schedule: Q01DX009 (ip), vehicle: saline with Tween-80
[4] = dose: 100.0 mg/kg/injection, schedule: Q01DX001 (ip), vehicle: saline
[5] = dose: 200.0 mg/kg/injection, schedule: Q01DX001 (ip), vehicle: saline
[6] = dose: 400.0 mg/kg/injection, schedule: Q01DX001 (ip), vehicle: saline
[7] = dose: 50.0 mg/kg/injection, schedule: Q04DX002 (ip), vehicle: saline
[8] = dose: 100.0 mg/kg/injection, schedule: Q04DX002 (ip), vehicle: saline
[9] = dose: 200.0 mg/kg/injection, schedule: Q04DX002 (ip), vehicle: saline
[10] = dose: 12.5 mg/kg/injection, schedule: Q01DX009 (ip), vehicle: Klucel (hydroxypropylcellulose) (HPC)
[11] = dose: 25.0 mg/kg/injection, schedule: Q01DX009 (ip), vehicle: Klucel (hydroxypropylcellulose) (HPC)
[12] = dose: 100.0 mg/kg/injection, schedule: Q04DX003 (ip), vehicle: saline with Tween-80
[13] = dose: 200.0 mg/kg/injection, schedule: Q04DX003 (ip), vehicle: saline with Tween-80

O=C1C(N2CC2)=C(N2CCCC(O)C2)C(=O)C(N2CC2)=C1N1CCCC(O)C1 (stereo not drawn) was tested. Which T/C (dose: 0.12 mg/kg/injection, schedule: Q04DX003 (ip), vehicle: saline) did it give?
The T/C was 103 % of control.

And the T/C (dose: 0.25 mg/kg/injection, schedule: Q04DX003 (ip), vehicle: saline)?
Its T/C is 111 % of control.

What about the T/C (dose: 0.37 mg/kg/injection, schedule: Q01DX001 (ip), vehicle: saline) of the same compound?
The T/C was 98 % of control.

And the T/C (dose: 0.37 mg/kg/injection, schedule: Q01DX009 (ip), vehicle: saline)?
The T/C was 102 % of control and 103 % of control.

And the T/C (dose: 0.5 mg/kg/injection, schedule: Q04DX003 (ip), vehicle: saline)?
Its T/C is 123 % of control.

What about the T/C (dose: 0.75 mg/kg/injection, schedule: Q01DX001 (ip), vehicle: saline) of the same compound?
The T/C was 108 % of control.

What about the T/C (dose: 0.75 mg/kg/injection, schedule: Q01DX009 (ip), vehicle: saline) of the same compound?
Its T/C is 96 % of control.

And the T/C (dose: 1.5 mg/kg/injection, schedule: Q01DX001 (ip), vehicle: saline)?
Its T/C is 105 % of control.

What about the T/C (dose: 1.5 mg/kg/injection, schedule: Q01DX009 (ip), vehicle: saline) of the same compound?
The T/C was 124 % of control.

And the T/C (dose: 2.0 mg/kg/injection, schedule: Q04DX003 (ip), vehicle: saline)?
Its T/C is 168 % of control.

What about the T/C (dose: 3.0 mg/kg/injection, schedule: Q01DX001 (ip), vehicle: saline) of the same compound?
Its T/C is 102 % of control.

And the T/C (dose: 3.0 mg/kg/injection, schedule: Q01DX009 (ip), vehicle: saline)?
The T/C was 159 % of control.

What about the T/C (dose: 4.0 mg/kg/injection, schedule: Q04DX003 (ip), vehicle: saline) of the same compound?
Its T/C is 156 % of control and 184 % of control.

What about the T/C (dose: 6.0 mg/kg/injection, schedule: Q04DX003 (ip), vehicle: saline) of the same compound?
Its T/C is 204 % of control.

How did the T/C (dose: 8.0 mg/kg/injection, schedule: Q01DX015 (ip), vehicle: saline) turn out when O=C(CC(=O)C(F)(F)C(F)(F)C(F)(F)F)c1csc2ccccc12 was run?
The T/C was 87 % of control.

What about the T/C [1] of the same compound?
Its T/C is 109 % of control.

And the T/C (dose: 16.0 mg/kg/injection, schedule: Q01DX015 (ip), vehicle: saline)?
The T/C was 87 % of control.

And the T/C [2]?
The T/C was 108 % of control.

And the T/C (dose: 32.0 mg/kg/injection, schedule: Q01DX015 (ip), vehicle: saline)?
Its T/C is 87 % of control.

And the T/C [3]?
The T/C was 96 % of control.

And the T/C (dose: 50.0 mg/kg/injection, schedule: Q04DX003 (ip), vehicle: acetone)?
The T/C was 101 % of control.

And the T/C [4]?
Its T/C is 104 % of control.

What about the T/C [5] of the same compound?
Its T/C is 102 % of control.

Which results are given for CC(=O)Nc1ccc(S(=O)(=O)C(Cl)c2ccccc2)cc1 (stereo not drawn)?
T/C [4]: 103 % of control; T/C [5]: 103 % of control; T/C [6]: 98 % of control

For CCOC(=O)NN(C(=O)OCC)C1COCCO1 (stereo not drawn), which T/C [7] is on record?
Its T/C is 98 % of control.

And the T/C [8]?
Its T/C is 103 % of control.

And the T/C [9]?
Its T/C is 103 % of control.

Nc1cc(S(=O)(=O)O)cc2cc(S(=O)(=O)O)cc(O)c12 was tested. Which T/C [7] did it give?
Its T/C is 92 % of control.

What about the T/C [8] of the same compound?
Its T/C is 100 % of control and 118 % of control.

What about the T/C [9] of the same compound?
Its T/C is 92 % of control.

And the T/C (dose: 400.0 mg/kg/injection, schedule: Q04DX002 (ip), vehicle: saline)?
Its T/C is 122 % of control and 92 % of control.

Which T/C (dose: 67.0 mg/kg/injection, schedule: Q04DX003 (ip), vehicle: saline) does the source give for C[n+]1cccc(O)c1 here?
The T/C was 105 % of control.

What about the T/C (dose: 100.0 mg/kg/injection, schedule: Q01DX009 (ip), vehicle: saline) of the same compound?
Its T/C is 90 % of control.

What about the T/C (dose: 100.0 mg/kg/injection, schedule: Q04DX003 (ip), vehicle: saline) of the same compound?
The T/C was 107 % of control.

And the T/C (dose: 150.0 mg/kg/injection, schedule: Q04DX003 (ip), vehicle: saline)?
The T/C was 105 % of control.

And the T/C (dose: 200.0 mg/kg/injection, schedule: Q01DX009 (ip), vehicle: saline)?
The T/C was 93 % of control.

What about the T/C (dose: 200.0 mg/kg/injection, schedule: Q04DX003 (ip), vehicle: saline) of the same compound?
The T/C was 124 % of control.

And the T/C (dose: 400.0 mg/kg/injection, schedule: Q01DX009 (ip), vehicle: saline)?
Its T/C is 92 % of control.

And the T/C (dose: 400.0 mg/kg/injection, schedule: Q04DX003 (ip), vehicle: saline)?
The T/C was 97 % of control.

NC(=Nc1ccccc1)Nc1ccccc1 was tested. Which T/C (dose: 6.25 mg/kg/injection, schedule: Q01DX009 (ip), vehicle: Klucel (hydroxypropylcellulose) (HPC)) did it give?
Its T/C is 101 % of control.

What about the T/C [10] of the same compound?
Its T/C is 101 % of control.

And the T/C [1]?
The T/C was 97 % of control.

What about the T/C [11] of the same compound?
Its T/C is 89 % of control.

And the T/C [2]?
Its T/C is 102 % of control.

What about the T/C (dose: 35.0 mg/kg/injection, schedule: Q01DX009 (ip), vehicle: saline) of the same compound?
Its T/C is 101 % of control.

What about the T/C [3] of the same compound?
Its T/C is 97 % of control.

Cc1c2ccccc2[n+](C)c2ccc3ccccc3c12 was tested. Which T/C (dose: 75.0 mg/kg/injection, schedule: Q01DX001 (ip), vehicle: carboxymethylcellulose (CMC)) did it give?
Its T/C is 94 % of control.

And the T/C (dose: 150.0 mg/kg/injection, schedule: Q01DX001 (ip), vehicle: carboxymethylcellulose (CMC))?
Its T/C is 94 % of control.

And the T/C (dose: 300.0 mg/kg/injection, schedule: Q01DX001 (ip), vehicle: carboxymethylcellulose (CMC))?
The T/C was 96 % of control.

With C=CCN(CC=C)C(=O)C(C)O (stereo not drawn) as the compound, how does the T/C [12] read?
The T/C was 103 % of control.

What about the T/C [13] of the same compound?
Its T/C is 103 % of control.

What about the T/C (dose: 400.0 mg/kg/injection, schedule: Q04DX003 (ip), vehicle: saline with Tween-80) of the same compound?
Its T/C is 98 % of control.

For CC(=O)N1Cc2nc(N)nc(N)c2C1, which T/C (dose: 100.0 mg/kg/injection, schedule: Q01DX001 (ip), vehicle: carboxymethylcellulose (CMC)) is on record?
Its T/C is 95 % of control.

And the T/C (dose: 200.0 mg/kg/injection, schedule: Q01DX001 (ip), vehicle: carboxymethylcellulose (CMC))?
The T/C was 104 % of control.

What about the T/C (dose: 400.0 mg/kg/injection, schedule: Q01DX001 (ip), vehicle: carboxymethylcellulose (CMC)) of the same compound?
Its T/C is 104 % of control.

For COc1ccccc1NC(=S)N(C)C, which T/C [12] is on record?
The T/C was 96 % of control.

And the T/C [13]?
Its T/C is 93 % of control.

For CC(=O)C1CCC2C3=CC=C4CC(O)CCC4(C)C3=CCC12C (stereo not drawn), which T/C (dose: 100.0 mg/kg/injection, schedule: Q04DX003 (ip), vehicle: Klucel (hydroxypropylcellulose) (HPC)) is on record?
The T/C was 96 % of control.

What about the T/C (dose: 200.0 mg/kg/injection, schedule: Q04DX003 (ip), vehicle: Klucel (hydroxypropylcellulose) (HPC)) of the same compound?
The T/C was 93 % of control.

What about the T/C (dose: 400.0 mg/kg/injection, schedule: Q04DX003 (ip), vehicle: Klucel (hydroxypropylcellulose) (HPC)) of the same compound?
Its T/C is 93 % of control.

For O=C1NC(C2CC3C=CC2C3)Nc2ccccc21 (stereo not drawn), which T/C [10] is on record?
The T/C was 100 % of control.

What about the T/C (dose: 12.5 mg/kg/injection, schedule: Q04DX003 (ip), vehicle: Klucel (hydroxypropylcellulose) (HPC)) of the same compound?
Its T/C is 111 % of control.

And the T/C [11]?
Its T/C is 101 % of control.

What about the T/C (dose: 25.0 mg/kg/injection, schedule: Q04DX003 (ip), vehicle: Klucel (hydroxypropylcellulose) (HPC)) of the same compound?
Its T/C is 103 % of control.

What about the T/C (dose: 50.0 mg/kg/injection, schedule: Q01DX009 (ip), vehicle: Klucel (hydroxypropylcellulose) (HPC)) of the same compound?
The T/C was 96 % of control.

And the T/C (dose: 50.0 mg/kg/injection, schedule: Q04DX003 (ip), vehicle: Klucel (hydroxypropylcellulose) (HPC))?
Its T/C is 103 % of control.

Which T/C (dose: 100.0 mg/kg/injection, schedule: Q01DX001 (ip), vehicle: Klucel (hydroxypropylcellulose) (HPC)) does the source give for CC(C)CCCC(C)C1CCC2C3CCC4(C)CCCCC4(C)C3CCC12C (stereo not drawn) here?
The T/C was 98 % of control.

What about the T/C (dose: 200.0 mg/kg/injection, schedule: Q01DX001 (ip), vehicle: Klucel (hydroxypropylcellulose) (HPC)) of the same compound?
The T/C was 94 % of control.

And the T/C (dose: 400.0 mg/kg/injection, schedule: Q01DX001 (ip), vehicle: Klucel (hydroxypropylcellulose) (HPC))?
The T/C was 109 % of control.

What does the source list for CN(C)CCCN=Cc1ccccc1O.CN(C)CCCN=Cc1ccccc1O.[Ni+2]?
T/C (dose: 6.25 mg/kg/injection, schedule: Q04DX003 (ip), vehicle: saline with Tween-80): 100 % of control; T/C (dose: 12.5 mg/kg/injection, schedule: Q04DX003 (ip), vehicle: saline with Tween-80): 94 % of control; T/C (dose: 25.0 mg/kg/injection, schedule: Q04DX003 (ip), vehicle: saline with Tween-80): 101 % of control

Which T/C (dose: 50.0 mg/kg/injection, schedule: Q01DX001 (ip), vehicle: saline) does the source give for N#Cc1ccc(NC(=O)NNC(=O)CCCC(=O)NNC(=O)Nc2ccc(C#N)cc2)cc1 here?
Its T/C is 95 % of control.

What about the T/C [4] of the same compound?
Its T/C is 97 % of control.

And the T/C [5]?
The T/C was 101 % of control.

What about the T/C [6] of the same compound?
The T/C was 95 % of control.
